Experimental data published in ChEMBL document CHEMBL1126491, “Dual antagonists of platelet activating factor and histamine. 2. pyridine ring substitution of N-acetyl-4-(8-chloro-5,6-dihydro-11H-benzo[5,6]cyclohepta[1,2-b]pyridin-11-ylidene)piperidines” (Bioorg Med Chem Lett, 1993).

Columns and labels:
[1] = species on record: Homo sapiens; assay: Concentration for inhibition of PAF-induced platelet aggregation in human platelet-rich plasma; type: functional
[2] = biological target: Histamine H1 receptor (Rattus norvegicus, UniProt P31390); assay: Ability to displace [3H]-pyrilamine from H1 receptor in rat brain membrane.; type: cell membranes
Sequence of Histamine H1 receptor (P31390 whole entry): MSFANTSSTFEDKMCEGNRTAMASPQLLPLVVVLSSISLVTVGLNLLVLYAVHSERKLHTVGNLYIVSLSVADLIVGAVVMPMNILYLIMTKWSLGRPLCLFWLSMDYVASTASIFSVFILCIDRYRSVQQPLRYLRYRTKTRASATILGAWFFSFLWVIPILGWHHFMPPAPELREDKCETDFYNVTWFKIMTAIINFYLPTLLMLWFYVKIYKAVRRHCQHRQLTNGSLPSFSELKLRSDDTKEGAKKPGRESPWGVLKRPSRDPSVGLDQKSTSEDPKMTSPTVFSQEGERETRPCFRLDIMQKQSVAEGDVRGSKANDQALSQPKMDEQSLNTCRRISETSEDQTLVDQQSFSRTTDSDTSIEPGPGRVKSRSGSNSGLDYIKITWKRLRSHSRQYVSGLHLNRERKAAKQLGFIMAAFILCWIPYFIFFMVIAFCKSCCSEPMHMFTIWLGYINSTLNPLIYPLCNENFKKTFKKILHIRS

Row | SMILES | IC50 [1] | Ki [2]
1 | CC(=O)N1CCC(=C2c3ccc(Cl)cc3CCc3cc(C(C)O)cnc32)CC1 (centres undefined) | 1070 nM | 40 nM
2 | CC(=O)N1CCC(=C2c3ccc(Cl)cc3CCc3cc(Br)cnc32)CC1 | 2290 nM | 10 nM
3 | CC(=O)N1CCC(=C2c3ccc(Cl)cc3CCc3cc(C)cnc32)CC1 | 340 nM | 70 nM
4 | COc1ccc2c(n1)C(=C1CCN(C(C)=O)CC1)c1ccc(Cl)cc1CC2 | 6000 nM | > 10000 nM
5 | CSc1cnc2c(c1)CCc1cc(Cl)ccc1C2=C1CCN(C(C)=O)CC1 | 600 nM | 210 nM
6 | COc1ccnc2c1CCc1cc(Cl)ccc1C2=C1CCN(C(C)=O)CC1 | 3040 nM | > 10000 nM
7 | CC(=O)N1CCC(=C2c3ccc(Cl)cc3CCc3ccc(C)nc32)CC1 | 280 nM | 1030 nM
8 | CC(=O)N1CCC(=C2c3ccc(Cl)cc3CCc3cc(C=O)cnc32)CC1 | 2730 nM | 700 nM
9 | CC(=O)N1CCC(=C2c3ccc(Cl)cc3CCc3c(O)ccnc32)CC1 | ≥ 50000 nM | > 10000 nM
10 | CC(=O)N1CCC(=C2c3ccc(Cl)cc3CCc3cccnc32)CC1 [SCH-37370] | 610 nM | –
11 | CC(=O)N1CCC(=C2c3ccc(Cl)cc3CCc3cc(O)cnc32)CC1 | 4130 nM | 1580 nM
12 | COc1cnc2c(c1)CCc1cc(Cl)ccc1C2=C1CCN(C(C)=O)CC1 | 1480 nM | 430 nM
13 | CC(=O)N1CCC(=C2c3ccc(Cl)cc3CCc3ccc(Cl)nc32)CC1 | 610 nM | 1360 nM
14 | CC(=O)N1CCC(=C2c3ccc(Cl)cc3CCc3cc(-c4ccccc4)cnc32)CC1 | 1080 nM | 230 nM
15 | CC(=O)c1cnc2c(c1)CCc1cc(Cl)ccc1C2=C1CCN(C(C)=O)CC1 | 2080 nM | 1160 nM
16 | CC(=O)N1CCC(=C2c3ccc(Cl)cc3CCc3cc(CO)cnc32)CC1 | 690 nM | 20 nM
17 | CC(=O)N1CCC(=C2c3ccc(Cl)cc3CCc3ccc(O)nc32)CC1 | 6750 nM | > 10000 nM
18 | CC(=O)N1CCC(=C2c3ccc(Cl)cc3CCc3c(C)ccnc32)CC1 | 6000 nM | 230 nM
19 | CC(=O)N1CCC(=C2c3ccc(Cl)cc3CCc3cc(Cl)cnc32)CC1 | 940 nM | 100 nM
20 | CC(=O)N1CCC(=C2c3ccc(Cl)cc3CCc3c(Cl)ccnc32)CC1 | 8000 nM | 240 nM
